Measured values published in publication PMC11292009, “Mapping protein binding sites by photoreactive fragment pharmacophores” (Communications Chemistry, 2024).
Several values for one entry are separate records, joined by “and”; a condition that tells them apart may be missing. Identical values can stand only once.

Columns and labels:
[1] = tested on: MOLM-13 cells; experiment: CellTiter-Blue cell viability assay, MOLM-13; format: cell-based; conditions: Homo sapiens, MOLM-13, 72 h
Procedure: MV4-11 and MOLM-13 cell lines were purchased from DSMZ (Braunschweig, Germany), and grown at 37 °C and 5% CO2 in RPMI 1640 medium (Gibco^TM, Thermo Fisher Scientific). Media were supplemented with 10% fetal calf serum (FCS), 10 U/mL penicillin, 10 µg/mL streptomycin and 2 mM L-glutamine (all Gibco^TM, Thermo Fisher Scientific).
To determine the IC50 of the selected compounds on the cell lines, CellTiter-Blue® cell viability assay (Promega) was performed. For this, cells were seeded in 96-well flat bottom plates at a cell density of 10,000 cells/well. Cells were treated in triplicates with the compound of interest at various concentrations or with 10 μM Bortezomib (S1013; Selleck Chemicals, Houston, TX, USA) as a positive control. Cell viability of treated cell lines was measured using CellTiter-Blue® after 72 h incubation. Plates were measured using a GloMax® plate reader (Promega) and IC50 values were determined by non-linear regression using the GraphPad Prism 9.1.1 (GraphPad Software, Inc.) and the data are reported as mean values ± SEM.

[2] = target: T1, STAT5B NTD (Homo sapiens, UniProt P51692); experiment: Microscale thermophoresis (MST), without irradiation; format: binding; conditions: for ΔFnorm: Fnorm - Unbound value; for ΔFnorm / Fnorm: Php065 concentration [log; for Fnorm: MST raw data
T1 construct: His-SUMO (N, cleaved yes); made in house; host or cells: E. coli BL21 RILP
T1 sequence (P51692 1-123): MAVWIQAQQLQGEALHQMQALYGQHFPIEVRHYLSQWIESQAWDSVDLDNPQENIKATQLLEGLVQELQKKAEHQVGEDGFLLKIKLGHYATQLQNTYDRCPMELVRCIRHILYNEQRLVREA
Procedure: For the microscale thermophoresis (MST) studies, we prepared 16 two-fold serial dilutions of compounds starting from 500 μM. Titration series were prepared that contained 10 μL of compounds’ solutions of varying concentrations and 10 μL RED-NHS 2nd Generation labeled STAT5B NTD with a concentration of 168 nM for compound PhP097, and a concentration of 84 nM for compound PhP065. Final buffer composition included 1X PBS containing 0.5% DMSO. All measurements were taken in Premium Coated Capillaries on a Monolith NT.115 instrument (NanoTemper Technologies, Munich, Germany) using 80% infrared laser power for compound PhP097, 60% infrared laser power for compound PhP065, and an LED excitation source with λ = 650 nm at a temperature of 25 °C. Results were expressed as the mean of two separate experiments, with three technical replicates each. GraphPad Prism 9.5.1 software was used to fit the data and to determine the KD values.

[3] = tested on: PANC-1 cells; experiment: MTT cell viability assay, PANC-1; format: cell-based, human; conditions: for cell viability: replicates
Source text: (§1) Pancreatic cancer cell lines PANC-1 (cat. no. CRL-1469), SW1990 (cat. no. CRL-2172) were obtained from ATCC (American Type Culture Collection). Genetically modified isogeneic colon cancer cell lines SW48-PAR and SW48-G12D were obtained from Horizon Discovery Ltd. PANC-1 (human pancreatic cancer, KRas^G12D), SW1990 (human pancreatic cancer, KRas^G12D), SW48-PAR (human colon cancer; parental cell line KRas^wt), and SW48-G12D (human colon cancer; heterozygous knockin of the KRas^G12D activating mutation) cancer cell lines were cultured in Roswell Park Memorial Institute Medium (RPMI; Biosera, Nuaille, France), supplemented with 10% heat-inactivated Fetal Bovine Serum (FBS; Biosera), and with 1% Penicillin/Streptomycin (Biosera). Cells were cultured in sterile T75 flasks with ventilation cap (Sarstedt, Nümbrecht, Germany) at 37 °C in a humidified atmosphere with 5% CO2 in ESCO CelCulture Incubator (ESCO, Friedberg, Germany). Manipulations with the cells were performed in biosafety cabinet (laminar) ESCO Sentinel Gold class II model AC2-4E8 (ESCO).
(§2) After standard harvesting of the cells by trypsin-EDTA (Biosera), 7 × 10^3 cells per well depending on the cell line, were seeded in serum-containing growth medium to 96-well plates and incubated. After 24 h, cells were treated with various concentrations of fragments (32 nM–100 μM), dissolved in serum-containing medium, and incubated under standard conditions. Control wells were treated with medium. Final concentration of serum was 2.5%, final concentration of DMSO was 0.2%. Treatment was for 72 h continuously.
(§3) Afterwards, MTT assay was performed in order to determine cell viability, by adding 20 μL of MTT solution (5 mg/mL in PBS) to each well and after 2 h of incubation at 37 °C, the supernatant was removed. The formazan crystals were dissolved in 100 μL of a 1:1 solution of DMSO (Sigma-Aldrich):EtOH (Molar Chemicals) and the absorbance was measured after 15 min at λ = 570 nm by using a microplate reader (BioTek 800TS, Agilent, Santa Clara, CA, USA). The IC50 values of the fragments were calculated using GraphPad Prism 6 (GraphPad Software, San Diego, CA, USA). The experiments were done in triplicate, and each experiment was repeated two times.

[4] = tested on: SW48-PAR cells; experiment: MTT cell viability assay, SW48-PAR; format: cell-based, human; conditions: for cell viability: replicates, in % (unit assumed)
Source text: as §1, §2, §3

[5] = µM] -0.0102833, runs/replicates

## Cc1[nH]c2ccccc2c1SCCNC(=O)CCC1(C)N=N1 [PhP065, c1cccc(c12)c(c(C)[nH]2)SCCNC(=O)CCC3(C)N=N3]
[1]
  IC50: 100 µM
[2]; µM] 0.290724, runs/replicates
  ΔFnorm: 0.9086 ‰ and 1.12 ‰ and 1.315 ‰ and 0.6539 ‰ and 3.352 ‰
  Fnorm: 864.059 ‰ and 864.76 ‰ and 864.855 ‰ and 874.324 ‰ and 877.312 ‰
[2]; µM] 0.591766, runs/replicates
  ΔFnorm: 1.904 ‰ and 1.964 ‰ and 2.239 ‰ and 1.873 ‰ and 1.543 ‰
  Fnorm: 865.054 ‰ and 865.604 ‰ and 865.779 ‰ and 875.543 ‰ and 875.503 ‰
[2]; µM] 0.89279, runs/replicates
  ΔFnorm: 2.551 ‰ and 2.874 ‰ and 3.878 ‰ and 2.514 ‰ and 2.452 ‰
  Fnorm: 865.701 ‰ and 866.514 ‰ and 867.418 ‰ and 876.184 ‰ and 876.412 ‰
[2]; µM] 1.19382, runs/replicates
  ΔFnorm: 2.441 ‰ and 3.584 ‰ and 3.84 ‰ and 4.085 ‰ and 3.441 ‰
  Fnorm: 865.591 ‰ and 867.224 ‰ and 867.38 ‰ and 877.755 ‰ and 877.401 ‰
[2]; µM] 1.49485, runs/replicates
  ΔFnorm: 2.771 ‰ and 2.9356 ‰ and 3.692 ‰ and 3.134 ‰ and 1.982 ‰
  Fnorm: 865.921 ‰ and 866.576 ‰ and 867.232 ‰ and 876.804 ‰ and 875.942 ‰
[2]; µM] 1.79588, runs/replicates
  ΔFnorm: 5.943 ‰ and 5.783 ‰ and 5.743 ‰ and 2.367 ‰ and 1.87 ‰
  Fnorm: 869.093 ‰ and 869.423 ‰ and 869.283 ‰ and 876.037 ‰ and 875.83 ‰
[2]; µM] 2.09691, runs/replicates
  ΔFnorm: 3.3934 ‰ and 3.578 ‰ and 3.242 ‰ and 3.625 ‰ and 1.481 ‰
  Fnorm: 866.543 ‰ and 867.218 ‰ and 866.782 ‰ and 877.295 ‰ and 875.441 ‰
[2]; [5]
  ΔFnorm: -0.1141 ‰ and 1.411 ‰ and 0.9224 ‰ and 2.015 ‰ and 2.612 ‰
  Fnorm: 863.036 ‰ and 865.051 ‰ and 864.462 ‰ and 875.685 ‰ and 876.572 ‰
[2]; µM] -0.612432, runs/replicates
  ΔFnorm: 0.5449 ‰ and 0.5795 ‰ and -0.1361 ‰ and -1.636 ‰ and -0.3141 ‰
  Fnorm: 863.695 ‰ and 864.219 ‰ and 863.404 ‰ and 872.034 ‰ and 873.646 ‰
[2]; µM] -1.21467, runs/replicates
  ΔFnorm: -0.5121 ‰ and -0.1857 ‰ and -0.4698 ‰ and -1.614 ‰ and -1.146 ‰
  Fnorm: 862.638 ‰ and 863.454 ‰ and 863.07 ‰ and 872.056 ‰ and 872.814 ‰
[2]; MST, without irradiation, 25 °C
  Kd: 2.58 µM

## Cc1ncc(CO)c(CNC(=O)CCC2(C)N=N2)c1O [PhP072, Cc1ncc(CO)c(c1O)CNC(=O)CCC2(C)N=N2]
[3]; Homo sapiens, read-out: IC50, antiproliferative activity, PANC-1, MTT, 72 h
  IC50: 22.6 µM
[3]; PANC-1, [PhP072] 3.2e-8 M, in % (unit assumed)
  cell viability: 94.1678 and 97.1333 and 95.7988 and 102.516 and 102.977 and 106.78
[3]; PANC-1, [PhP072] 1.6e-7 M
  cell viability: 92.8333 and 84.2333 and 97.1333 and 102.977 (2×) and 103.899
[3]; PANC-1, [PhP072] 8e-7 M
  cell viability: 87.6436 and 92.0919 and 90.4609 and 96.2933 (2×) and 94.7953
[3]; PANC-1, [PhP072] 4e-6 M, in % (unit assumed)
  cell viability: 82.1574 and 83.0471 and 79.785 and 89.6098 and 90.0707 and 84.5396
[3]; PANC-1, [PhP072] 2e-5 M, in % (unit assumed)
  cell viability: 72.9643 and 73.7057 and 70.7401 and 83.3872 and 78.8931 and 79.2388
[3]; PANC-1, [PhP072] 0.0001 M
  cell viability: 57.9884 and 55.9125 and 55.7642 and 57.9207 and 64.7194 (2×)
[4]; MTT, 72 h
  Antiproliferative effect: antiproliferative activity
[4]; [PhP072] 3.2e-8 M
  cell viability: 110.532 and 99.0425 and 106.761 and 103.567 and 100.905
[4]; [PhP072] 1.6e-7 M
  cell viability: 106.815 and 103.774 and 96.677 and 105.91 and 101.544 and 99.8403
[4]; [PhP072] 8e-7 M
  cell viability: 103.098 and 102.084 and 99.3805 and 101.65 and 100.905 and 100.16
[4]; [PhP072] 4e-6 M
  cell viability: 97.3529 and 105.125 and 97.3912 and 92.7061 and 92.8126
[4]; [PhP072] 2e-5 M
  cell viability: 98.3667 and 91.9459 and 92.9597 and 81.7386 and 78.0118 and 75.2433
[4]; [PhP072] 0.0001 M
  cell viability: 78.0907 and 76.0631 and 71.332 and 66.8313 and 68.322 and 64.4887
